# Assay results from patent US20230226259A1, “NANOFIBER CARDIAC PATCH AND METHODS OF USE THEREOF” (Ohio State Innovation Foundation, priority 2020, published 2023).
# What was measured:
# COVID-19 patients = conditions: cited from earlier work
# hiPSC-CMs = assay: Multi-electrode array (MEA) field potentials of hiPSC-CMs cultured in 2-D or on aligned coaxial patches (3-D) after cardiac drugs; format: cell-based, human; conditions: for beating frequency (beats per minute): change after treatment
# [1] = system: hiPSC-CMs cultured on aligned coaxial patches; assay: Particle image velocimetry (PIV) optical contractility of aligned coaxial cardiac patch; format: cell-based, human; conditions: 100 nM, patches at two weeks of culture
# Description: Cross-correlation (“PIV”) analysis of images. Cell contractility kinetics were assessed using the optical flow/PIV method. Briefly, a motion pattern (velocity field) captured on a pair of images was calculated by dividing the first image into overlapping tiles, each 64 pixels wide. The second image was then scanned pixel-by-pixel, by shifting an equally sized (64×64 pixels) window. The most similar (by Euclidean distance) tile on the second image was then assumed to be the location where the pattern in the first image moved. The resulting displacement vectors characterizing each image tile were then interpolated and denoised by a thin-plate spline fit, yielding a coarse displacement field. The coarse estimate was used to construct a second, higher resolution displacement field. […] Fourier spectra were calculated from D(t) beat patterns using the discrete Fourier transform algorithm. Power densities were calculated as the magnitudes of the squared Fourier spectra, and indicate periodicity within the signal in the form of peaks at the corresponding frequencies. When the analyzed signal is not a pure sine wave, harmonics are expected to appear at integer multiples of the fundamental frequency f(2f, 3f, etc). […]
# fertilized chicken eggs = assay: In ovo CAM assay; format: in vivo; conditions: in Geltrex carrier, 5 days
# Description: The angiogenic potential of bFGF loaded PDA-NPs and DPDA-NPs was evaluated by using fertilized chicken eggs. The eggs were incubated in a hatching incubator for 5 days, following the incubation the viable eggs were selected and grouped as follows (bFGF+Geltrex, bFGF-PDA-NPs+Geltrex, bFGF-DPDA-NPs+Geltrex and only Geltrex). A window was made on the eggshell and a sterilized nylon mesh was placed inside the egg. The test samples were loaded on the nylon mesh and the window was covered by placing a 35 mm plate and secured by using tape. The eggs were further incubated for 5 days, following which it was carefully dissected to retrieve the nylon mesh and imaged using a stereomicroscope (Leica).
compound,measurement,setting,value
"CCN(CCO)CCCC(C)Nc1ccnc2cc(Cl)ccc12 (stereo not shown) [HCQ, hydroxychloroquine]",cell death,hiCMs,increased
same,cell viability,hiCMs,decreased
same,electrophysiological function (MEA and patch clamp),hiCMs,considerable changes
same,QT interval,COVID-19 patients; COVID-19 / SARS-CoV-2 patients,QT prolongation
same,association between treatment and consequent intubation or death,COVID-19 patients; New York study (Geleris et al),no significant association
same,recovery of patients,"COVID-19 patients; randomized clinical trial, administration for 5 days",improved recovery
"CC(C)NCC(O)c1ccc(O)c(O)c1 (stereo not shown) [ISO, Isoproterenol]",beat period,"hiPSC-CMs; 2-D culture, 10 nM ISO",0.67 ± 0.04 s
same,beat period,"hiPSC-CMs; 2-D culture, 100 nM ISO",0.66 ± 0.03 s
same,beat period,"hiPSC-CMs; 3-D culture (aligned coaxial patch), 10 nM ISO",0.8 ± 0.15 s
same,beat period,"hiPSC-CMs; 3-D culture (aligned coaxial patch), 100 nM ISO",0.66 ± 0.1 s
same,"Fridericia-corrected field potential duration (FPDc), change vs baseline",hiPSC-CMs; both 2-D and 3-D cultures,dose-dependent shortening of the QT interval
same,"beat period, change vs baseline",hiPSC-CMs; both 2-D and 3-D cultures,significant dose-dependent decrease
same,beating frequency (beats per minute),hiPSC-CMs; both 2-D and 3-D cultures,increase
same,spontaneous beat amplitude (beat patterns),[1],increase
same,average frequency of spontaneous beating,"[1]; mean +- SEM, untreated 0.136 Hz",1.497+−0.0394 Hz
COc1ccc(CCN(C)CCCC(C#N)(c2ccc(OC)c(OC)c2)C(C)C)cc1OC (stereo not shown) [Verapamil],"FPDc, change with dose","hiPSC-CMs; 3-D culture only, 0.1 μM and 0.3 μM",dose-dependent decrease
same,"beat period, change vs baseline",hiPSC-CMs; both 2-D and 3-D cultures,significant fold decrease
same,beating frequency (beats per minute),hiPSC-CMs; both 2-D and 3-D cultures,increase
bFGF: basic fibroblast growth factor,new blood vessel formation on nylon mesh,fertilized chicken eggs,remarkable angiogenesis
